Key:
[1] = tested on: human CD34+ stem cells; assay: Bone marrow stem cell (hematopoietic) colony formation assay; type: cell-based; conditions: for mean number of colonies, % of control, 14 day / mean number of colonies, % of control, 8 day: 40 μM compound, mean N=2; for mean number of colonies, % of control, 14 day: 14 days; for mean number of colonies, % of control, 8 day: total colonies at 8 days
Experimental: In parallel with measuring growth inhibition of cancer cell growth, we measured effect on human hematopoietic stem cells. Hematopoietic stem cells reside in the bone marrow and are the source of mature cells present in blood.[66] Bone marrow is one of the most sensitive organs in the body to drug toxicity, especially so for anticancer drugs where it can approach 100%.[67–69] Bone marrow toxicity was measured by performing hematopoietic colony formation assays on human CD34+ stem cells. The stem cell nature of this assay permitted assessment of trilineage colony formation: granulocytic (white blood cells), erythrocytic (red blood cells) and megakaryocytic (platelets), measured by the formation of CFU-GM (colony-forming-granulocyte-macrophage), BFU-E (erythroid burst-forming unites) and CFU-GEMM (colony-forming unit-granulocyte, erythrocyte, monocyte, megakaryocyte) colonies, respectively. Two measurements were taken. Total colonies at eight days were measured, thereby matching the eight-day time frame of cancer cell colony formation assays. At fourteen days, individual colonies have differentiated, permitting quantification of each lineage. Human hematopoietic stem cell trilineage colony formation assays were performed as previously described by us.[65] Briefly, human cord blood CD34+ cells (catalog #: 70008.5) were purchased from StemCell Technology Inc., and seeded at 1 × 10^4 cells per 35 mm dish. Cells were cultured in MethoCult™ Express (StemCell Technologies, Inc.) semisolid media, per manufacturer’s instructions, in the presence of compound or vehicle control. At eight days colonies, i.e., groups of ≥ 10 cells, were counted. At fourteen days, individual colonies of BFU-E, CFU-GM and CFU-GEMM were identified based on manufacturers’ morphologic characterization criteria. Assays were run in replicates of N = 2; some were run in replicates of N = 3, as denoted.

[2] = tested on: HT29 colon cancer cells; assay: Eight-day colony formation assay, HT29; type: cell-based, human
Experimental: (§1) We sought to identify compounds that would inhibit the growth of cancer cells, but that also did so selectively. Inhibition of cancer cell growth is a highly sought after attribute of anticancer agents. This was assessed by measuring the ability of a compound to inhibit cell growth in eight-day colony formation assays, examining concentrations ranging from 0.017 to 40 μM. Breast, colon, lung and prostate cancer are four of the most common causes of cancer in the United States, are major causes of cancer cell death, and were examined.[64] Two cell lines for each cancer type were assessed: A549 (adenocarcinoma) and H226 (squamous carcinoma) for lung, MCF-7 (estrogen receptor [ER] positive) and MDA-MB-231 (ER negative) for breast, LNCaP (androgen receptor [AR] positive) and PC3-M (AR negative) for prostate, and HCT116 (wild type p53, mutated KRAS) and HT29 (p53 mutant) for colon.[65]
(§2) In considering effect on cancer cells, for each compound and each cell line tested we calculated the efficacy ratio, i.e., efficacy ratio = (percent of remaining cancer cell colonies)/(percent of remaining bone marrow colonies), at 8 days after treatment with 40 μM compound (S4 Fig). We considered those with an efficacy ratio below 0.5 as active and at least partially selective. The stringency of this is highlighted by considering the effect of 5FU on colon cancer, where it is frequently used clinically in proven curative settings, as well as proven life prolonging settings.[70, 71] […] Even at 5.7 μM, where 5FU is toxic to bone marrow, with hematopoietic colony formation at 38% of control, the efficacy ratio for HT29 cells has only dropped to 0.52. […] It can be seen that compounds segregate to protein sites. Specifically, of 10 compounds meeting this activity criteria (i.e., efficacy ratio <0.5), 3 were directed at the Dxr2 site, 3 at FolC2, 2 at FolC1, 1 at Dxr1 and 1 at TYLT.
(§3) Eight-day colony formation assays of cancer cells were performed as described by us.[87] Briefly, 0.5–1.0 × 10^3 cells were seeded into a 12 well plate, after 24 hours compound added and eight days later colonies (of 3 or more cells) were scored after trypan blue staining. Conditions were in replicates of N = 2. All compounds were stored under desiccated conditions in a sealed container at minus 20°C upon arrival. One day prior to use, they were placed into DMSO, stored at […] as stock solutions, thawed just prior to use, and not reused.

[3] = tested on: A549 lung cancer cells; assay: Eight-day colony formation assay, A549; type: cell-based, human
Experimental: as §1, §2, §3

[4] = tested on: HT116 colon cancer cells; assay: Eight-day colony formation assay, HT116; type: cell-based, human
Experimental: as §1, §2, §3

[5] = tested on: HT29, MDA-MB-231 and H226; assay: NCI-60 cell line screen, other cell lines; type: cell-based, human; conditions: 10 μM X 48 hours
Experimental: Above findings support the importance of Dxr2 and FolC2 sites, and of Dxr2-017 and FolC2-001 compounds, respectively. The predicted poses of Dxr2-017 bound to the Dxr2 site and FolC2-001 bound to the FolC2 site are shown (Fig 7). The NCI-60 cell line screen evaluates compound growth inhibition and cell toxicity in a highly standardized manner across 60 different cell lines. Dxr2-017 and FolC2-001 were evaluated in this assay (S5 Fig). NCI-60 screens evaluate compounds at 10 μM X 48 hours. […] Of high interest, in the NCI-60 screen Dxr2-017 had relatively high activity against melanoma cell lines, inducing cell death in 5 cell lines ranging from 25–65%, and inhibiting growth in 4 cell lines ranging from 76–96%. Its impact on cell death represents the most striking relative difference in response across cell lines.

[6] = tested on: human breast, prostate, colon and lung cancer cells; assay: Eight-day colony formation assays, summary across the cancer cell line panel; type: cell-based
Experimental: as §1, §2, §3

[7] = tested on: PC3-M prostate cancer cells; assay: Eight-day colony formation assay, PC3-M; type: cell-based, human
Experimental: as §1, §2, §3

[8] = tested on: LNCaP prostate cancer cells; assay: Eight-day colony formation assay, LNCaP; type: cell-based, human
Experimental: as §1, §2, §3

[9] = tested on: MCF-7 breast cancer cells; assay: Eight-day colony formation assay, MCF-7; type: cell-based, human
Experimental: as §1, §2, §3

[10] = tested on: MDA-MB-231 breast cancer cells; assay: Eight-day colony formation assay, MDA-MB-231; type: cell-based, human; conditions: MDAMB231
Experimental: as §1, §2, §3

[11] = tested on: H226 lung cancer cells; assay: Eight-day colony formation assay, H226; type: cell-based, human
Experimental: as §1, §2, §3

O=c1[nH]cc(F)c(=O)[nH]1 [5FU, 5-fluorouracil, reference compound]
effect on bone marrow ([1]; 0.82 μM): no effect | effect on bone marrow colony formation ([1]; 5.7 μM): profound suppressive effects | hematopoietic colony formation, % of control ([1]; 5.7 μM): 38 % of control | effect on bone marrow colony formation ([1]; 40 μM): completely suppresses colony formation | efficacy ratio ([2]; 0.82 μM): 0.82 | efficacy ratio (cancer cell colonies to bone marrow colonies at 8 days) ([2]; 5.7 μM): 0.52

Cc1nnsc1C(=O)OCCCn1c(=O)[nH]c2ccccc21 [Dxr2-001]
mean number of colonies, % of control, 14 day [1]: 93 % of control | mean number of colonies, % of control, 8 day [1]: 109 % of control

c1ccc(CCc2n[nH]c(-c3ccccn3)n2)cc1 [FolC1-031]
mean number of colonies, % of control, 14 day [1]: 85 % of control | mean number of colonies, % of control, 8 day [1]: 80 % of control

O=C(Cn1c(=O)oc2ccccc21)N1CCn2c1nc1ccccc12 [FolC2-001]
mean number of colonies, % of control, 14 day [1]: 87 % of control | mean number of colonies, % of control, 8 day [1]: 108 % of control | efficacy ratio (cancer cell colonies to bone marrow colonies at 8 days) ([3]; 5.7 μM): 0.99 | efficacy ratio (cancer cell colonies to bone marrow colonies at 8 days) ([3]; 40 μM): 0.53 | efficacy ratio (cancer cell colonies to bone marrow colonies at 8 days) ([4]; 5.7 μM): 0.85 | efficacy ratio (cancer cell colonies to bone marrow colonies at 8 days) ([4]; 40 μM): 0.60 | activity in NCI-60 screen [5]: against H226 | number of cell lines exhibiting an efficacy ratio below 0.5 ([6]; 40 μM): 5 cell lines | relative activity for a given compound, % (% of cells tested where ratio is <0.5) ([6]; 40 μM): 63% | fold higher mean efficacy ratio than that of Dxr2-017 ([6]; 40 μM, cells with ratio below 0.5, P = 0.001): 9.7 fold | mean efficacy ratio for cells/compounds where the efficacy ratio is below 0.5 ([6]; 40 μM, mean ± SEM): 0.29 ± 0.09 | efficacy at concentrations below 40 μM [6]: some degree of efficacy observed | efficacy ratio (cancer cell colonies to bone marrow colonies at 8 days) ([7]; 5.7 μM): 0.96 | efficacy ratio (cancer cell colonies to bone marrow colonies at 8 days) ([7]; 40 μM): 0.41 | efficacy ratio (cancer cell colonies to bone marrow colonies at 8 days) ([8]; 5.7 μM): 0.82 | efficacy ratio (cancer cell colonies to bone marrow colonies at 8 days) ([8]; 40 μM): 0.34 | efficacy ratio (cancer cell colonies to bone marrow colonies at 8 days) ([9]; 5.7 μM): 0.65 | efficacy ratio (cancer cell colonies to bone marrow colonies at 8 days) ([9]; 40 μM): 0.43 | efficacy ratio (cancer cell colonies to bone marrow colonies at 8 days) ([2]; 5.7 μM): 1.13 | efficacy ratio (cancer cell colonies to bone marrow colonies at 8 days) ([2]; 40 μM): 0.79 | efficacy ratio (cancer cell colonies to bone marrow colonies at 8 days) ([10]; 5.7 μM): 0.81 | efficacy ratio (cancer cell colonies to bone marrow colonies at 8 days) ([10]; 40 μM): 0.28 | efficacy ratio (cancer cell colonies to bone marrow colonies at 8 days) ([11]; 5.7 μM): 0.56 | efficacy ratio (cancer cell colonies to bone marrow colonies at 8 days) ([11]; 40 μM): 0.00

O=C(CCc1c[nH]c2ccccc12)N1CCSc2ccccc21 [FolC2-005]
mean number of colonies, % of control, 14 day [1]: 101 % of control | mean number of colonies, % of control, 8 day [1]: 105 % of control | efficacy ratio (cancer cell colonies to bone marrow colonies at 8 days) ([3]; 40 μM): 0.69 | efficacy ratio (cancer cell colonies to bone marrow colonies at 8 days) ([4]; 40 μM): 0.70 | relative activity for a given compound, % (% of cells tested where ratio is <0.5) ([6]; 40 μM): 63% | efficacy at concentrations below 40 μM [6]: A similar phenomenon is observed | efficacy ratio (cancer cell colonies to bone marrow colonies at 8 days) ([7]; 40 μM): 0.00 | efficacy ratio (cancer cell colonies to bone marrow colonies at 8 days) ([8]; 40 μM): 0.28 | efficacy ratio (cancer cell colonies to bone marrow colonies at 8 days) ([9]; 40 μM): 0.33 | efficacy ratio (cancer cell colonies to bone marrow colonies at 8 days) ([2]; 40 μM): 0.06 | efficacy ratio (cancer cell colonies to bone marrow colonies at 8 days) ([10]; 40 μM): 0.78 | efficacy ratio (cancer cell colonies to bone marrow colonies at 8 days) ([11]; 40 μM): 0.11

O=C(Nc1nnn[nH]1)c1cc(-c2ccccc2)nc2ccccc12 [PRT-051]
mean number of colonies, % of control, 14 day [1]: 119 % of control | mean number of colonies, % of control, 8 day [1]: 93 % of control

O=C(Cc1n[nH]c(=O)c2ccccc12)Nn1cnc2ccccc21 [TYLT-001]
mean number of colonies, % of control, 14 day [1]: 103 % of control | mean number of colonies, % of control, 8 day [1]: 117 % of control

O=C(COC(=O)c1cccs1)c1ccc2[nH]c(=O)[nH]c2c1 [TYLT-003]
mean number of colonies, % of control, 14 day [1]: 94 % of control | mean number of colonies, % of control, 8 day [1]: 97 % of control

From article doi:10.1101/2024.05.17.594634, “Protein Structure Inspired Drug Discovery” (bioRxiv, 2024)
